Assay results: PMC11992225, “Antibacterial compounds against non-growing and intracellular bacteria” (npj Antimicrobials and Resistance, 2025)
Where “and” joins values, the source holds several entries; their conditions need not be identical. Equal values may be shown once.

Assays:
[1] = system: non-growing S. aureus DSM2569; assay: Dose-dependent killing analysis (CFU spot-plating) of stationary-phase S. aureus;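 as to average Δlog10(CFU/ml) (killing): drug concentration in µM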; assay type: cell-based, Staphylococcus aureus; details: S. aureus; for average Δlog10(CFU/ml) (killing) / Killing: average Δlog10(CFU/ml): vs 9,097 before treatment
Method in brief: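 Survival was scored as CFU after overnight growth at 37 °C on LB agar, using spots from 10-fold PBS dilutions of treated cultures. Non-growing S. aureus DSM2569 had been exposed to compound for 24 h in 1:4 CA-MHB, pH 7.4. Three biological replicates were run.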

[2] = system: non-growing P. aeruginosa DSM1117; assay: Dose-dependent killing analysis (CFU spot-plating) of stationary-phase P. aeruginosa; assay type: cell-based, Pseudomonas aeruginosa
Procedure: The cultures were grown and treated for 24 h in 1:4 CA-MHB (pH 7.4).
For survival analysis, bacteria were cultivated as described for the dose–response dilution-regrowth assay. Assays with UPEC were conducted at the CBCS screening facility using 96-well plates with a 200 μl sample volume, and compounds were dispensed using the Echo® (Labcyte) system. P. aeruginosa and S. aureus samples were treated according to the protocol used for the dilution-regrowth experiments. Treated samples were serially diluted 10-fold in PBS, and 10 μl drops were spot-plated onto rectangular LB agar plates using either a Beckman NXP robot (for UPEC) or an Integra VIAFLO96 electronic pipette (for P. aeruginosa and S. aureus). The LB agar plates were incubated overnight at 37 °C and scanned. Colonies were counted at the spots of the lowest dilution where individual colonies could be accurately distinguished. Each colony was manually marked on a separate image layer using the GNU Image Manipulation Program, and counted using NIST’s Integrated Colony Enumerator (NICE 1.4) software. The experiments were performed in three biological replicates.

[3] = system: non-growing UPEC CFT073; assay: Dose-dependent killing analysis (CFU spot-plating) of stationary-phase UPEC; assay type: cell-based, Escherichia coli
Method in brief: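 Killing assessed by CFU counts: overnight 37 °C LB agar spot plates (10 μl drops of 10-fold PBS dilutions) scored at the lowest dilution with distinct colonies. Samples were compound-treated non-growing UPEC CFT073, 200 μl per well. Performed as three biological replicates.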

NC1CCN(c2c(F)cc3c(=O)c(C(=O)O)cn(C4CC4)c3c2Cl)C1 (centres unmarked) [Clinafloxacin]
average Δlog10(CFU/ml) (killing) ([1]; drug conc 0.1): 0.189 log10(CFU/ml)
average Δlog10(CFU/ml) (killing) ([1]; drug conc 0.5): 0.859 log10(CFU/ml)
average Δlog10(CFU/ml) (killing) ([1]; drug conc 2.5): 1.351 log10(CFU/ml)
average Δlog10(CFU/ml) (killing) ([1]; drug conc 10): 1.499 log10(CFU/ml)
reduction of bacterial counts, stationary phase P. aeruginosa ([2]; at 0.5 µM, 24 h treatment): more than four
reduction of bacterial counts, non-growing P. aeruginosa ([2]; at 2.5 µM, 1:4 CA-MHB pH 7.4, 24 h treatment): more than four

CO[C@H]1/C=C/O[C@@]2(C)Oc3c(C)c(O)c4c(O)c(c(/C=N/N5CCN(C6CCCC6)CC5)c(O)c4c3C2=O)NC(=O)/C(C)=C\C=C\[C@H](C)[C@H](O)[C@@H](C)[C@@H](O)[C@@H](C)[C@H](OC(C)=O)[C@@H]1C [Rifapentine]
log10(CFU/ml) after treatment, single replicates ([1]; concentration 0.1): 8.708 log10(CFU/ml) and 8.968 log10(CFU/ml) and 8.653 log10(CFU/ml)
Killing: average Δlog10(CFU/ml) ([1]; concentration 0.1): 0.321 log10(CFU/ml)
log10(CFU/ml) after treatment, single replicates ([1]; concentration 0.5): 8.732 log10(CFU/ml) and 8.954 log10(CFU/ml) and 8.491 log10(CFU/ml)
Killing: average Δlog10(CFU/ml) ([1]; concentration 0.5): 0.371 log10(CFU/ml)
log10(CFU/ml) after treatment, single replicates ([1]; concentration 2.5): 8.672 log10(CFU/ml) and 8.748 log10(CFU/ml) and 8.643 log10(CFU/ml)
Killing: average Δlog10(CFU/ml) ([1]; concentration 2.5): 0.409 log10(CFU/ml)
log10(CFU/ml) after treatment, single replicates ([1]; concentration 10): 8.756 log10(CFU/ml) and 8.477 log10(CFU/ml) and 8.544 log10(CFU/ml)
Killing: average Δlog10(CFU/ml) ([1]; concentration 10): 0.505 log10(CFU/ml)
log10(CFU/ml) after treatment, single replicates ([3]; E. coli in 1:4 CA-MHB (pH 7.4), concentration 0.25): 9.114 log10(CFU/ml) and 8.301 log10(CFU/ml) and 8.415 log10(CFU/ml)
Killing: average Δlog10(CFU/ml) ([3]; E. coli in 1:4 CA-MHB (pH 7.4), concentration 0.25, vs 8.977 before treatment): 0.367 log10(CFU/ml)
log10(CFU/ml) after treatment, single replicates ([3]; E. coli in 1:4 CA-MHB (pH 7.4), concentration 0.5): 9.301 log10(CFU/ml) and 8.778 log10(CFU/ml) and 8.380 log10(CFU/ml)
Killing: average Δlog10(CFU/ml) ([3]; E. coli in 1:4 CA-MHB (pH 7.4), concentration 0.5, vs 8.977 before treatment): 0.158 log10(CFU/ml)
log10(CFU/ml) after treatment, single replicates ([3]; E. coli in 1:4 CA-MHB (pH 7.4), concentration 1): 9.079 log10(CFU/ml) and 8.602 log10(CFU/ml) and 8.342 log10(CFU/ml)
Killing: average Δlog10(CFU/ml) ([3]; E. coli in 1:4 CA-MHB (pH 7.4), concentration 1, vs 8.977 before treatment): 0.303 log10(CFU/ml)
log10(CFU/ml) after treatment, single replicates ([3]; E. coli in 1:4 CA-MHB (pH 7.4), concentration 2.5): 9.176 log10(CFU/ml) and 9.204 log10(CFU/ml) and 8.845 log10(CFU/ml)
Killing: average Δlog10(CFU/ml) ([3]; E. coli in 1:4 CA-MHB (pH 7.4), concentration 2.5, vs 8.977 before treatment): -0.098 log10(CFU/ml)
log10(CFU/ml) after treatment, single replicates ([3]; E. coli in 1:4 CA-MHB (pH 7.4), concentration 5): 9.204 log10(CFU/ml) and 8.699 log10(CFU/ml) (2×)
Killing: average Δlog10(CFU/ml) ([3]; E. coli in 1:4 CA-MHB (pH 7.4), concentration 5, vs 8.977 before treatment): 0.110 log10(CFU/ml)
log10(CFU/ml) after treatment, single replicates ([3]; E. coli in 1:4 CA-MHB (pH 7.4), concentration 10): 9.114 log10(CFU/ml) and 8.362 log10(CFU/ml) and 8.204 log10(CFU/ml)
Killing: average Δlog10(CFU/ml) ([3]; E. coli in 1:4 CA-MHB (pH 7.4), concentration 10, vs 8.977 before treatment): 0.417 log10(CFU/ml)
log10(CFU/ml) after treatment, single replicates ([3]; E. coli in LPM (pH 5.5), concentration 0.25): 7.000 log10(CFU/ml) and 6.519 log10(CFU/ml) and 7.613 log10(CFU/ml)
Killing: average Δlog10(CFU/ml) ([3]; E. coli in LPM (pH 5.5), concentration 0.25, vs 7.350 before treatment): 0.307 log10(CFU/ml)
log10(CFU/ml) after treatment, single replicates ([3]; E. coli in LPM (pH 5.5), concentration 0.5): 6.954 log10(CFU/ml) and 6.699 log10(CFU/ml) and 7.531 log10(CFU/ml)
Killing: average Δlog10(CFU/ml) ([3]; E. coli in LPM (pH 5.5), concentration 0.5, vs 7.350 before treatment): 0.289 log10(CFU/ml)
log10(CFU/ml) after treatment, single replicates ([3]; E. coli in LPM (pH 5.5), concentration 1): 6.778 log10(CFU/ml) and 6.602 log10(CFU/ml) and 7.613 log10(CFU/ml)
Killing: average Δlog10(CFU/ml) ([3]; E. coli in LPM (pH 5.5), concentration 1, vs 7.350 before treatment): 0.353 log10(CFU/ml)
log10(CFU/ml) after treatment, single replicates ([3]; E. coli in LPM (pH 5.5), concentration 2.5): 7.079 log10(CFU/ml) and 6.447 log10(CFU/ml) and 7.491 log10(CFU/ml)
Killing: average Δlog10(CFU/ml) ([3]; E. coli in LPM (pH 5.5), concentration 2.5, vs 7.350 before treatment): 0.344 log10(CFU/ml)
log10(CFU/ml) after treatment, single replicates ([3]; E. coli in LPM (pH 5.5), concentration 5): 7.204 log10(CFU/ml) and 6.845 log10(CFU/ml) and 7.301 log10(CFU/ml)
Killing: average Δlog10(CFU/ml) ([3]; E. coli in LPM (pH 5.5), concentration 5, vs 7.350 before treatment): 0.234 log10(CFU/ml)
log10(CFU/ml) after treatment, single replicates ([3]; E. coli in LPM (pH 5.5), concentration 10): 6.778 log10(CFU/ml) and 7.041 log10(CFU/ml) and 7.204 log10(CFU/ml)
Killing: average Δlog10(CFU/ml) ([3]; E. coli in LPM (pH 5.5), concentration 10, vs 7.350 before treatment): 0.342 log10(CFU/ml)
